Test results: patent US8367695B2, “Condensed tetrahydroquinoline derivative and use thereof for medical purposes” (Mitsubishi Tanabe Pharma Corporation, priority 2007, dated 2013)

Target: T1, human recombinant progesterone receptor-B (PRB) (Homo sapiens, UniProt P06401)
T1 construct: purchased Invitrogen (Carlsbad, Calif.)
T1 sequence (P06401 1-933): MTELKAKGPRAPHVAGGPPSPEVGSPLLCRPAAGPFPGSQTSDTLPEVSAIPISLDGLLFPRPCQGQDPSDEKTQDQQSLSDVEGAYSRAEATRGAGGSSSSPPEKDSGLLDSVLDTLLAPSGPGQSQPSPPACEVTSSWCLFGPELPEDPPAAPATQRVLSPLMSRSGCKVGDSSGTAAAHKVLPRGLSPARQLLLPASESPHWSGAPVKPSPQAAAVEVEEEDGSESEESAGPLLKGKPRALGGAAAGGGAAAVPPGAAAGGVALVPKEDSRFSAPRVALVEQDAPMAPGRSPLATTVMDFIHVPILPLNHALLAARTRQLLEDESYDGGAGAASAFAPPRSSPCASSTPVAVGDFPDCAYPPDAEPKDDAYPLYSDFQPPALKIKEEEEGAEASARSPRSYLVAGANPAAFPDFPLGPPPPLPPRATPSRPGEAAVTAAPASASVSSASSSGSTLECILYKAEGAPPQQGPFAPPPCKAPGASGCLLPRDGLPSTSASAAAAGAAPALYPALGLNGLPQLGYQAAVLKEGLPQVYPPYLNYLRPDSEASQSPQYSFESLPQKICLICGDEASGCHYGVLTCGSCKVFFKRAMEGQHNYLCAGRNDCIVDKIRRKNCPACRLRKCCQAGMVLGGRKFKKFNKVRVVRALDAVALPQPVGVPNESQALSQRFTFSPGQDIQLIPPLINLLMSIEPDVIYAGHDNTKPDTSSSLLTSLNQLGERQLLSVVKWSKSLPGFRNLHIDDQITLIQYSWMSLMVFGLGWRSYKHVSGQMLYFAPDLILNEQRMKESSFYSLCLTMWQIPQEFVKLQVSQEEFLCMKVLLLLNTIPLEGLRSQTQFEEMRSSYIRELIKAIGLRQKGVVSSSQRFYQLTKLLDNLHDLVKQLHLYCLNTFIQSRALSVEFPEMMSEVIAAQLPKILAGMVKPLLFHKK
Assay: Radioactive ligand binding test, PRB cytosol, [3H]-Prog
Details: [3H]-Prog about 5 nM, PRB cytosol, 4° C.; Cheng-Prusoff, Kd about 3.5 nM; read-out: PR (Ki: nM)
From the text: Radioactive Ligand Binding Test Using Cytosols of Human Glucocorticoids Receptor, Progesterone Receptor and Mineralocorticoid Receptor
The procedures described in Neuroimmunomodulation (1994, 1, p. 66-73) and Invest. Opthalmol. Vis. Sci. (1996, 37, p. 805-813) were modified and used. In brief, cytosol preparations of human recombinant glucocorticoids receptor (GR) and human recombinant progesterone receptor-B (PRB) were purchased from Invitrogen (Carlsbad, Calif.), and a cytosol preparation of human recombinant mineralocorticoid receptor (MR) was prepared by our company (Yokohama, JP). MR cDNA was cloned into a baculovirus expression vector and expressed in insect cell Sf9. The procedures described in J. Biol. Chem. (1991, 266, p. 18072-18081), Proc. Natl. Acad. Sci. USA (1991, 88, p. 10681-10685) and Bac-to-Bac (registered trade mark) Baculovirus Expression Systems technical manual (Invitrogen) were partly modified and used as the procedures for MR gene cloning up to preparation of recombinant receptor cytosol. [^3H]-Dexamethasone (Dex, specific activity 91.0 Ci/mmol) was purchased from GE Healthcare (Buckinghamshire, UK), and [^3H]-progesterone (Prog, specific activity 103 Ci/mmol) and [3H]-aldosterone (Ald, specific activity 87.9 Ci/mmol) were each purchased from PerkinElmer (Boston, Mass.). Polypropylene round-bottomed 96 well plate was obtained from ABgene (Epsom, UK). Dimethyl Sulfoxide (DMSO) and hydrochloric acid were obtained from Kanto Chemical (TOKYO, JP). Trizma Base (Tris), Bovine Serum Albumin (BSA) and Sodium tungstate dihydrate were obtained from Sigma Chemicals (St. Louis, Mo.). Dithiothreitol (DTT) and Dextran 70 were obtained from GE Healthcare (Buckinghamshire, UK). Glycerol was obtained from Junsei Chemical (TOKYO, JP). Norit® “SX-II” was obtained from Wako Pure Chemical Industries, Ltd. (Osaka, JP). MeltiLex™, A, Printed Filtermat A and Sample Bag were obtained from PerkinElmer (Boston, Mass.).
As a buffer for GR binding assay, 25 mM Tris-HCl (4° C., pH 7.4)/1 mM EDTA·2Na/1 mM DTT/0.1% BSA was prepared and used. As buffers for PRB and MR binding assay, 10 mM Tris-HCl (4° C., pH 7.4)/1 mM DTT/0.1% BSA/10% glycerol and 20 mM Tris-HCl (4° C., pH 7.4)/1 mM EDTA·2Na/10% glycerol/20 mM sodium tungstate were respectively prepared and used. As dextran-coated charcoal (DCC) for B/F separation, 0.75% Dextran 70/0.75% Norit® SX-II/10 mM Tris-HCl (4° C., pH 7.4) was prepared and used.
Compound storage solutions (5-20 mM) were prepared using DMSO. The storage solutions were diluted with DMSO to 0.1 mM (for GR) and 0.3 mM (for PRB and MR), and further diluted 20-fold with distilled water to give solutions. Then, the preparations were diluted to each concentration with 5% DMSO solution. 1% DMSO was present at the time of the binding assay.
In the case of PRB binding assay, [^3H]-Prog (about 5 nM), PRB cytosol (concentration of function receptor: about 4 pmol/mL), a test compound and a binding buffer were mixed in a total volume of 50 μL, and the mixture was stood at 4° C. for 30 min or longer. A specific binding was defined to be the difference in the [^3H]-Prog binding between the presence and the absence of 1 μM unlabeled Prog.
After the reaction, 50 μL of DCC was added to each well and blended. Thereafter, the mixture was stood at 4° C. for 10 min. The plate was applied to high-speed cooling centrifuge under the conditions of 4° C., 2000 rpm, 5 min to perform B/F separation. A given amount of the supernatant was recovered, which was spotted on Filtermat A of 96 well format (PerkinElmer) and rapidly dried at a high temperature. Then, solid scintillator MeltiLex A (PerkinElmer) was melted on Filtermat A. The mixture was placed in a Sample Bag (PerkinElmer), and the level of radioactivity was measured by plate reader 1450 Micro Beta TRILUX (PerkinElmer).
Measurement of Inhibition Constant (Ki)

| SMILES | Ki [nM] |
| --- | --- |
| Cc1onc(CO)c1-c1cc2c(c3ccoc13)NC(C)(C)C(=O)C2(C)C [Example 94, 6-(3-hydroxymethyl-5-methylisoxazol-4-yl)-2,2,4,4-tetramethyl-1,2,3,4-tetrahydro-furo[2,3-h]quinolin-3-one] | > 1250 |
| CC1(C)Nc2c(cc(-c3cncc4nccn34)c3occc23)C(C)(C)C1=O [Example 100, 6-(imidazo[1,2-a]pyrazin-5-yl)-2,2,4,4-tetramethyl-1,2,3,4-tetrahydro-furo[2,3-h]quinolin-3-one] | > 1250 |
| CC1(C)Nc2c(cc(-c3cccc4ncccc34)c3occc23)C(C)(C)C1=O [Example 101, 2,2,4,4-tetramethyl-6-(quinolin-5-yl)-1,2,3,4-tetrahydro-furo [2,3-h]quinolin-3-one] | 1220 |
| Cc1noc(C)c1-c1cc2c(c3c1C(=O)CC3)NC(C)(C)C(=O)C2(C)C [Example 104, 6-(3,5-dimethylisoxazol-4-yl)-2,2,4,4-tetramethyl-2,3,4,7,8,9-hexahydro-1H-cyclopenta[h]quinoline-3,7-dione] | > 1250 |

Continued, values first:

| Ki [nM] | SMILES |
| --- | --- |
| 1050 | CC1(C)Nc2c(cc(-c3cccc4nccn34)c3occc23)C(C)(C)C1=O [Example 98, 6-(imidazo[1,2-a]pyridin-5-yl)-2,2,4,4-tetramethyl-1,2,3,4-tetrahydro-furo[2,3-h]quinolin-3-one] |
| > 1250 | CC1(C)Nc2c(cc(-c3ccnc4ncccc34)c3occc23)C(C)(C)C1=O [Example 102, 2,2,4,4-tetramethyl-6-([1,8]naphthyridin-4-yl)-1,2,3,4-tetrahydro-furo[2,3-h]quinolin-3-one] |
